“And” between values parts separate entries of the source, which are not always exact repeats. Identical values can stand only once. “Also recorded” adds a separate entry of the source. Like-named read-outs stand apart in the source and are kept apart here.
Key:
breast cancer cell lines = test: MTT cell viability / checkerboard assay, cell line not given; settings: Homo sapiens, read-out: IC50 values
MDA-MB-231 cells = test: MTT cell viability assay with Chou-Talalay median-effect / combination index analysis; settings: for IC50 / IC90 / IC75: Homo sapiens, MDA-MB-231, 48 h; for IC50: read-out: Dm (µM) IC50; for IC90: read-out: Dm (µM) IC90; for IC75: read-out: Dm (µM) IC75
MCF-7 cells = test: as above; settings: for IC50 / IC90 / IC75: Homo sapiens; for IC90: read-out: Dm (µM) IC90; for IC75: read-out: Dm (µM) IC75
white blood cells = test: Toxicity screening in white blood cells (MTT); assay type: cell-based, human; settings: B6 (42 µM), C6 (43 µM), 24 hours
Experimental: MTT solution (5mg/ml, 20 µl) was added to existing media in the wells and the cells were incubated for 3 hours at 37 °C. After the 3 hours, the plate was centrifuged at 1000 x g for 10 minutes, the spent media removed and the formazan crystals solubilised in 100 µl DMSO. The plate was then shaken for 1 minute and the absorbance read at 550nm.
Blood samples were obtained from healthy volunteers (n=3, 16 ml/person) in ethylenediaminetetraacetic acid (EDTA) vacutainers. The samples were centrifuged at 500 x g for 10 minutes, the plasma (top layer) removed and the buffy coat collected. The buffy coat was then centrifuged at 2000 x g for 10 minutes to remove residual plasma while retaining the buffy coat. Lysis buffer (0.16M NH4Cl, 0.01 M KHCO3, 6 mM EDTA; pH 7.3) was added to the buffy coat in a 9:1 ratio (lysis buffer:buffy coat) and the mixture vortexed for 10 seconds, followed by a 10 minute incubation at room temperature. The sample was then centrifuged at 2000 x g for 10 minutes and the pellet retained (containing white blood cells). […] White blood cells were stained with trypan blue and counted using a haemocytometer. […]
The potential toxicity induced by the selected treatments (B6 and C6) were evaluated in two ways: 1) screening in the normal breast cells, MCF-10A and 2) determining the cytotoxicity to white blood cells isolated from human volunteers (Figure 14).

[1] = MCF7, 48 h, read-out: Dm (µM) IC50
[2] = MCF7, read-out: Required concentration of cannabinoids: Individual

Structure (SMILES): CCCCCc1cc(O)c2c(c1)OC(C)(C)[C@@H]1CCC(C)=C[C@@H]21 [THC, Δ^9-tetrahydrocannabinol]
- IC50 (breast cancer cell lines): 32 µM
- Dm (µM) IC75 (MDA-MB-231 cells): 38.33 µM
- IC50 (MDA-MB-231 cells): 30 µM
- IC90 (MDA-MB-231 cells): 49 µM
- Dm (µM) IC75 (MCF-7 cells): 43.11 µM
- Required concentration of cannabinoids: Individual (MCF-7 cells): 39.23 µM (2×) and 47.24 µM (2×)
- IC50 (MCF-7 cells; [1]): 32.2 µM
- IC90 (MCF-7 cells; MCF7, 48 h): 57.7 µM
- IC50 (MCF-7 cells; [2]): 32.6 µM

Structure (SMILES): CCCCCc1cc(O)c2c(c1)OC(C)(C)c1ccc(C)cc1-2 [CBN, cannabinol]
- IC50 (breast cancer cell lines): 25 µM
- IC50 (MDA-MB-231 cells): 22.5 µM
- IC75 (MDA-MB-231 cells): 25.7 µM
- IC90 (MDA-MB-231 cells): 29.3 µM
- IC50 (MCF-7 cells; [1]): 23.4 µM
- IC75 (MCF-7 cells; MCF7, 48 h): 26.6 µM
- IC90 (MCF-7 cells; MCF7, 48 h): 30.2 µM
- IC50 (MCF-7 cells; [2]): 23.4 µM

Structure (SMILES): C=C(C)[C@@H]1CCC(C)=C[C@H]1c1c(O)cc(CCCCC)cc1O [CBD, cannabidiol]
- IC50 (breast cancer cell lines): 19 µM
- IC50 (MDA-MB-231 cells): 14.7 µM
- IC75 (MDA-MB-231 cells): 26.4 µM
- IC90 (MDA-MB-231 cells): 47.4 µM
- IC50 (MCF-7 cells; [1]): 20.6 µM
- IC75 (MCF-7 cells; MCF7, 48 h): 30.2 µM
- IC90 (MCF-7 cells; MCF7, 48 h): 44.4 µM
- IC50 (MCF-7 cells; [2]): 20.6 µM

Structure (SMILES): CCCCCc1cc(O)c(C/C=C(\C)CCC=C(C)C)c(O)c1 [CBG, cannabigerol]
- IC50 (breast cancer cell lines): 30 µM
- IC50 (MDA-MB-231 cells): 24.9 µM
- IC75 (MDA-MB-231 cells): 28.1 µM
- IC90 (MDA-MB-231 cells): 31.8 µM
- IC50 (MCF-7 cells; [1]): 26.9 µM
- IC75 (MCF-7 cells; MCF7, 48 h): 33 µM
- IC90 (MCF-7 cells; MCF7, 48 h): 40.5 µM
- IC50 (MCF-7 cells; [2]): 26.9 µM

Structure (SMILES): CC[C@@]1(O)C(=O)OCc2c1cc1n(c2=O)Cc2cc3ccccc3nc2-1 [camptothecin]
- growth inhibition / cytotoxicity (white blood cells): lack of growth inhibition; also recorded: limited cytotoxicity

— patent EP4203925B1, “CANNABINOID COMBINATIONS AND THEIR USE IN THE TREATMENT OF CANCER” (priority 2020, dated 2022)
